Columns and labels:
[1] = molecular target: T1, C-C chemokine receptor type 5 (Homo sapiens, UniProt P51681); test: Binding affinity against C-C chemokine receptor type 5 stably expressed in Chinese hamster ovary (CHO) cells using [125I]-MIP-1 alpha as the radioligand; type: cell-based
[2] = molecular target: T2, C-C chemokine receptor type 3 (Homo sapiens, UniProt P51677); test: Compound was evaluated for its inhibitory activity against C-C chemokine receptor type 3
T2 sequence (P51677 whole entry): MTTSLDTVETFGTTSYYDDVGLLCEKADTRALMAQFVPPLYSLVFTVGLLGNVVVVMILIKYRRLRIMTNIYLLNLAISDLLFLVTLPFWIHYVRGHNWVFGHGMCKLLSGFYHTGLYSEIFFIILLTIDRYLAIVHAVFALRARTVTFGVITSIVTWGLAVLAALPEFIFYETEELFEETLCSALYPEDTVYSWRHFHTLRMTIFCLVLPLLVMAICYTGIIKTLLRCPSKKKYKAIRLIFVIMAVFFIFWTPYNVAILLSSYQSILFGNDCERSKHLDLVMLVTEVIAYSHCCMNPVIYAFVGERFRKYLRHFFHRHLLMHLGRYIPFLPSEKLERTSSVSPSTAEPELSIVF

[3] = molecular target: T3, C-C chemokine receptor type 1 (Homo sapiens, UniProt P32246); test: Compound was evaluated for inhibitory activity against C-C chemokine receptor type 1
T3 sequence (P32246 whole entry): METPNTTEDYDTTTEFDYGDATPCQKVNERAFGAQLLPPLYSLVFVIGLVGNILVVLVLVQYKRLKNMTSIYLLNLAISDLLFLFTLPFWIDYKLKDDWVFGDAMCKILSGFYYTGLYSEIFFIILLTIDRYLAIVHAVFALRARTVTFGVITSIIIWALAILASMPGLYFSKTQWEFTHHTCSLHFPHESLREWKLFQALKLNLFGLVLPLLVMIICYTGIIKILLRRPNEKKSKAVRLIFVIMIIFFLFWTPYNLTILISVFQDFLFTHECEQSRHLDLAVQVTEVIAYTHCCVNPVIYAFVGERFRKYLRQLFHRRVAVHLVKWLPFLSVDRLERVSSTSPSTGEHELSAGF

[4] = molecular target: C-X-C chemokine receptor type 4 (Homo sapiens, UniProt P61073); test: Compound was evaluated for its inhibitory activity against C-X-C chemokine receptor type 4
Sequence of C-X-C chemokine receptor type 4 (P61073 whole entry): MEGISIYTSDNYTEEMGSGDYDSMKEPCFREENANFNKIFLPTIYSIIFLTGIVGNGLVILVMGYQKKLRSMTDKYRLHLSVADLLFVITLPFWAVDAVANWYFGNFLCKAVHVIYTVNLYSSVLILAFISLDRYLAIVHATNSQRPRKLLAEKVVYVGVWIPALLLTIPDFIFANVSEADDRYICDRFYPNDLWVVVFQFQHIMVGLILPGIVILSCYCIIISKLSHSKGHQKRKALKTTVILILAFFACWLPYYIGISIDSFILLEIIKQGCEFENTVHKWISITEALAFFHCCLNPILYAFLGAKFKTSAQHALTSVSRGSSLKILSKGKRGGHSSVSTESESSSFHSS

[5] = molecular target: C-C chemokine receptor type 2 (Homo sapiens, UniProt P41597); test: Compound was evaluated for its inhibitory activity against C-C chemokine receptor type 2
Sequence of C-C chemokine receptor type 2 (P41597 whole entry): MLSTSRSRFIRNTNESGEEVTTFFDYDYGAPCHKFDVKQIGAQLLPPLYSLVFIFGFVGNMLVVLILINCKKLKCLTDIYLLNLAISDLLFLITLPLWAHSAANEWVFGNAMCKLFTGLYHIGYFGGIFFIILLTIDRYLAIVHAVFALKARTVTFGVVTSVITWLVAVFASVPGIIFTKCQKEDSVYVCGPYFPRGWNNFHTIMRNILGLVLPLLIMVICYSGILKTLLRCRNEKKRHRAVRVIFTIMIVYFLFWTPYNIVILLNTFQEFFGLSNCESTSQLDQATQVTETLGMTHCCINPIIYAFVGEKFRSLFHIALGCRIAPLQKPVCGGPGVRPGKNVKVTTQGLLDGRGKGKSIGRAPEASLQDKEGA

[6] = molecular target: T4, C-C chemokine receptor type 4 (Homo sapiens, UniProt P51679); test: Compound was evaluated for its inhibitory activity against C-C chemokine receptor type 4
T4 sequence (P51679 whole entry): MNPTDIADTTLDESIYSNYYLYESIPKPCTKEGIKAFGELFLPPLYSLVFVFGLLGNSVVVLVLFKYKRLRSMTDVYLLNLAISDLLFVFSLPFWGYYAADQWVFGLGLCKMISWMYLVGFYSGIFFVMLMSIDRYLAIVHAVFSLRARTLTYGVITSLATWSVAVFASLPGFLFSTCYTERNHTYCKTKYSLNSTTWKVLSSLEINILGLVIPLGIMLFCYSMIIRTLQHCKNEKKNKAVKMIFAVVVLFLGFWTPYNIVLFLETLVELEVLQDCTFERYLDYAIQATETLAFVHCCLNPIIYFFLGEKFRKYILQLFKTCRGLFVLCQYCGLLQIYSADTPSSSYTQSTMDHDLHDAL

HeLa = test: Antiviral activity against HeLa Magi cells expressing both CXCR4 and CCR5 in a 48 hr single cycle HIV (BAL) infection assay; type: functional; conditions: Homo sapiens
[7] = Oral bioavailability in rat; type: ADME, organism-based; conditions: in vivo
[8] = Clearance in rat.; type: ADME, organism-based; conditions: in vivo
[9] = molecular target: T1, C-C chemokine receptor type 5; test: Binding affinity against human CCR5 receptor stably expressed in Chinese hamster ovary (CHO) cells using [125I]-MIP-1 alpha as the radioligand; type: cell-based

T1 sequence (P51681 whole entry): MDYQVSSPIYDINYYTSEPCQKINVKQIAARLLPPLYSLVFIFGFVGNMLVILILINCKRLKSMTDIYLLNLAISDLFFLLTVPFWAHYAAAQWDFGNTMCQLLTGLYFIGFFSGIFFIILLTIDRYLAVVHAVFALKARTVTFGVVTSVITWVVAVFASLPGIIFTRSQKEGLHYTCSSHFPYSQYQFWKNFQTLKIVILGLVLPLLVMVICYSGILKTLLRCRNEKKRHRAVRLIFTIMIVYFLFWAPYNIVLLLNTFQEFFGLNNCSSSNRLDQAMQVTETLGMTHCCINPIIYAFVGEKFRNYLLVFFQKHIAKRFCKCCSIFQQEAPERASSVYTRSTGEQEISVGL

C=CCN(C(=O)OCc1ccc([N+](=O)[O-])cc1)C1CCN(CCC(Cn2nnc(-c3ccccc3)n2)c2ccccc2)CC1 (stereo not drawn)
IC50 [1]: 111 nM

C=CCN(C(=O)OCc1ccccc1)C1CCN(CCC(Cn2cnc3ccccc32)c2ccccc2)CC1 (stereo not drawn)
IC50 [2]: > 1000 nM | IC50 [3]: > 1000 nM | IC50 [4]: > 1000 nM | IC50 [1]: 25 nM | IC50 [5]: > 1000 nM | IC50 [6]: > 1000 nM | IC90 (HeLa): > 3000 nM

C=CCN(C(=O)OCc1ccccc1)C1CCN(CCC(C)(CN2C(=O)N[C@H](Cc3c[nH]c4ccccc34)C2=O)c2ccccc2)CC1 (stereo partly drawn)
bioavailability [7]: 1% | clearance [8]: 84 mL/min/kg

C=CCN(C(=O)OCc1ccc([N+](=O)[O-])cc1)C1CCN(CCC(Cn2nnnc2-c2ccccc2)c2ccccc2)CC1 (stereo not drawn)
IC50 [1]: 335 nM

C=CCN(C(=O)OCc1ccc([N+](=O)[O-])cc1)C1CCN(CCC(C)(Cn2cnc3ccccc32)c2ccccc2)CC1 (stereo not drawn)
IC50 [2]: > 1000 nM | IC50 [3]: > 1000 nM | IC50 [4]: > 1000 nM | IC50 [1]: 10 nM | IC50 [5]: > 1000 nM | IC50 [6]: > 1000 nM | IC90 (HeLa): 1000 nM

C=CCN(C(=O)OCc1ccc([N+](=O)[O-])cc1)C1CCN(CCC(Cn2cnc(Cl)c2Cl)c2ccccc2)CC1 (stereo not drawn)
IC50 [1]: 16 nM

C=CCN(C(=O)OCc1ccc([N+](=O)[O-])cc1)C1CCN(CCC(Cn2cncn2)c2ccccc2)CC1 (stereo not drawn)
IC50 [1]: 28 nM

C=CCN(C(=O)OCc1ccccc1)C1CCN(CCC(C)(Cn2cnc3ccccc32)c2ccccc2)CC1 (stereo not drawn)
IC50 [2]: > 1000 nM | IC50 [3]: > 1000 nM | IC50 [4]: > 1000 nM | IC50 [1]: 112 nM | IC50 [5]: > 1000 nM | IC50 [6]: > 1000 nM

C=CCN(C(=O)OCc1ccc([N+](=O)[O-])cc1)C1CCN(CCC(Cn2cc3ccccc3n2)c2ccccc2)CC1 (stereo not drawn)
IC50 [1]: 27 nM

C=CCN(C(=O)OCc1ccc([N+](=O)[O-])cc1)C1CCN(CCC(Cn2cnc3ccccc32)c2ccccc2)CC1 (stereo not drawn)
bioavailability [7]: 14% | clearance [8]: 49 mL/min/kg | IC50 [2]: > 1000 nM | IC50 [3]: > 1000 nM | IC50 [4]: > 1000 nM | IC50 [1]: 4 nM | IC50 [5]: > 1000 nM | IC50 [6]: > 1000 nM | IC90 (HeLa): 1000 nM

C=CCN(C(=O)OCc1ccc([N+](=O)[O-])cc1)C1CCN(CCC(Cn2cnc(CC#N)c2)c2ccccc2)CC1 (stereo not drawn)
IC50 [1]: 15 nM

C=CCN(C(=O)OCc1ccc([N+](=O)[O-])cc1)C1CCN(CCC(Cn2c(CC)nc3ccccc32)c2ccccc2)CC1 (stereo not drawn)
IC50 [2]: > 1000 nM | IC50 [3]: > 1000 nM | IC50 [4]: > 1000 nM | IC50 [1]: 48 nM | IC50 [5]: > 1000 nM | IC50 [6]: > 1000 nM | IC90 (HeLa): 3000 nM

C=CCN(C(=O)OCc1ccc([N+](=O)[O-])cc1)C1CCN(CCC(Cn2cnc(-c3ccccc3)c2)c2ccccc2)CC1 (stereo not drawn)
IC50 [1]: 23 nM

C=CCN(C(=O)OCc1ccccc1)C1CCN(CCC(Cn2c(CC)nc3ccccc32)c2ccccc2)CC1 (stereo not drawn)
IC50 [2]: > 1000 nM | IC50 [3]: > 1000 nM | IC50 [4]: > 1000 nM | IC50 [1]: 246 nM | IC50 [5]: > 1000 nM | IC50 [6]: > 1000 nM

C=CCN(C(=O)OCc1ccc([N+](=O)[O-])cc1)C1CCN(CCC(Cn2cnc([N+](=O)[O-])c2)c2ccccc2)CC1 (stereo not drawn)
IC50 [1]: 15 nM

C=CCN(C(=O)OCc1ccc([N+](=O)[O-])cc1)C1CCN(CCC(Cn2ncc3ccccc32)c2ccccc2)CC1 (stereo not drawn)
IC50 [1]: 15 nM

CN(C[C@@H](CCN1CCC2(CC1)C[S+]([O-])c1ccccc12)c1cccc(Cl)c1)S(=O)(=O)c1ccccc1 (stereo partly drawn)
IC50 [9]: 35 nM

C=CCN(C(=O)OCc1ccccc1)C1CCN(CCC(C)(c2ccccc2)C2Nc3ccccc3S(=O)(=O)N2)CC1 (single isomer, unassigned)
IC50 [1]: 55 nM

C=CCN(C(=O)OCc1ccc([N+](=O)[O-])cc1)C1CCN(CCC(C)(c2ccccc2)C2c3ccccc3C(=O)N2CC)CC1 (single isomer, unassigned; form 1)
IC50 [1]: 18 nM

C=CCN(C(=O)OCc1ccc([N+](=O)[O-])cc1)C1CCN(CCC(C)(c2ccccc2)C2c3ccccc3C(=O)N2CC)CC1 (single isomer, unassigned; form 2)
IC50 [1]: 10 nM

C=CCN(C(=O)OCc1ccccc1)C1CCN(CCC(C)(c2ccccc2)C2Nc3ccccc3S(=O)(=O)N2)CC1 (stereo in doubt)
IC50 [1]: 18 nM

From ChEMBL document CHEMBL1133867, “Design, synthesis, and SAR of heterocycle-containing antagonists of the human CCR5 receptor for the treatment of HIV-1 infection” (Bioorg Med Chem Lett, 2001)
